Our source for the IC50 values is patent publication US20180105561A1, “ANALOGS OF SODIUM CHANNEL PEPTIDE TOXIN” (priority 2010, published 2018).

The target of one test is human Nav1.7 (Homo sapiens, UniProt Q15858). Format: cell-based. The note with it: Table 3, natural toxins.
The subject of the next test is Nav1.2 (rBIIa). In words: Sodium channel-blocking assay, Nav1.2 counter-screen. Format: cell-based, rat. The note with it: Table 3, natural toxins.

Where a SMILES comes first, the peptide text is derived from it. Bridges are numbered along the chain shown (N, C = ends).

Sequence of human Nav1.7 (Q15858 other isoform, or with tags, fused parts or gaps): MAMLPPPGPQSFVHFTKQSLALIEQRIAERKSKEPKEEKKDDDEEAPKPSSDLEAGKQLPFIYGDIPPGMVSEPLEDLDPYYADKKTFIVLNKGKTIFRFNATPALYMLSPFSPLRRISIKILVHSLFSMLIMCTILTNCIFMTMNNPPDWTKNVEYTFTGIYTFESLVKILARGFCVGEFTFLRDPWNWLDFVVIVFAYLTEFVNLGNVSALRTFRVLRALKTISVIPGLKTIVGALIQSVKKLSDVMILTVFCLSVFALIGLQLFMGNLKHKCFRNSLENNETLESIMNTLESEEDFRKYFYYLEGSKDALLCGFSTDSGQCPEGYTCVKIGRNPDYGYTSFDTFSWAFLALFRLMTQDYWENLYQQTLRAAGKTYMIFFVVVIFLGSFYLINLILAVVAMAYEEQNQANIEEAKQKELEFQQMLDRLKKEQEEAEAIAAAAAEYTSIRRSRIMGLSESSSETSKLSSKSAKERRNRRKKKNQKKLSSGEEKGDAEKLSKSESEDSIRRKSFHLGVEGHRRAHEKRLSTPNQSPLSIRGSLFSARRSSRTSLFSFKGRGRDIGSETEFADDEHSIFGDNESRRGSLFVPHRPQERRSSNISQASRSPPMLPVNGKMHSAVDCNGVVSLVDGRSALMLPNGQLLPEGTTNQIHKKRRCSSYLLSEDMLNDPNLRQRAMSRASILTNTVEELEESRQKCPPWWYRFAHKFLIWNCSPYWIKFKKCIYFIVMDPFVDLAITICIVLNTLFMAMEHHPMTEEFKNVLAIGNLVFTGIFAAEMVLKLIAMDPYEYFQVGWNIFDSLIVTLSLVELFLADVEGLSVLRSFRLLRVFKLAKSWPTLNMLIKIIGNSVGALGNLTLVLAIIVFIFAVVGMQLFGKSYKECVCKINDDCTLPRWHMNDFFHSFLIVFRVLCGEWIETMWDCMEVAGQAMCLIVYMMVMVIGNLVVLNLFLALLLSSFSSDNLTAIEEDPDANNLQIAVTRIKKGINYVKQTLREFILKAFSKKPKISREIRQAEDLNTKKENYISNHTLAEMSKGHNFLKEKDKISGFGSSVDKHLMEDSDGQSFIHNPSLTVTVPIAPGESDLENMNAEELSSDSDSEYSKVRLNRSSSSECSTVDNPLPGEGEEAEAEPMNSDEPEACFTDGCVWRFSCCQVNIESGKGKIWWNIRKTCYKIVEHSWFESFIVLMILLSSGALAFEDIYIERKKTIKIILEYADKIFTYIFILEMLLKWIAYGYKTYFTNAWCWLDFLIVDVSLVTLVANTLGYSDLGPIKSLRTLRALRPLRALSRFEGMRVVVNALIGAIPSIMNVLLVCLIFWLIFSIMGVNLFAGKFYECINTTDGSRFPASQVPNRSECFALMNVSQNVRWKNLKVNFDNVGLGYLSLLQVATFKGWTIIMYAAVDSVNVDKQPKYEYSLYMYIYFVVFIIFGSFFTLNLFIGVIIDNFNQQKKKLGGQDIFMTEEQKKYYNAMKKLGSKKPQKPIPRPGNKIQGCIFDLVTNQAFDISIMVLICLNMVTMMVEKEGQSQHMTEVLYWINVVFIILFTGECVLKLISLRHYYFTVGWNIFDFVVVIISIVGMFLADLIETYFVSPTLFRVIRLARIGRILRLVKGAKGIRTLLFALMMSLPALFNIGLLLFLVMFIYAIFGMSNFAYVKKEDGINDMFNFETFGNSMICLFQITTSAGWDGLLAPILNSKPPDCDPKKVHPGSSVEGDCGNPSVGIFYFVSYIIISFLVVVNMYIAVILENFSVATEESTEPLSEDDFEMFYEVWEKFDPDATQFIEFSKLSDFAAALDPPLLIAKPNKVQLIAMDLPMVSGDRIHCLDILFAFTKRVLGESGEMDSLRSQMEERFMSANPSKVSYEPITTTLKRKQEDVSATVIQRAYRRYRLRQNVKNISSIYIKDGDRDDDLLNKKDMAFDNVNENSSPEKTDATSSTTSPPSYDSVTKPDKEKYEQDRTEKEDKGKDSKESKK

For the compound `CC[C@H](C)[C@H](NC(=O)[C@H](CCCCN)NC(=O)[C@H](CCCCN)NC(=O)[C@H](CCCCN)NC(=O)[C@@H]1CSSC[C@@H]2NC(=O)[C@H](CCCCN)NC(=O)[C@H](CCCNC(=N)N)NC(=O)[C@H](CCC(=O)O)NC(=O)[C@H](CCC(=O)O)NC(=O)[C@H](CC(=O)O)NC(=O)[C@@H]3CSSC[C@H](NC(=O)[C@H](C(C)C)NC(=O)[C@H](CC(C)C)NC(=O)CNC(=O)[C@H](CCC(=O)O)NC(=O)[C@H](CSSC[C@H](NC(=O)[C@@H](N)Cc4ccc(O)cc4)C(=O)N[C@@H](CCC(N)=O)C(=O)N[C@@H](CCCCN)C(=O)N[C@@H](Cc4c[nH]c5ccccc45)C(=O)N[C@@H](CCSC)C(=O)N[C@@H](Cc4c[nH]c5ccccc45)C(=O)N[C@@H]([C@@H](C)O)C(=O)N3)NC2=O)C(=O)N[C@@H](CCCNC(=N)N)C(=O)N[C@@H](CC(C)C)C(=O)N[C@@H](Cc2c[nH]c3ccccc23)C(=O)N1)C(=O)N[C@@H](CCC(=O)O)C(=O)N[C@@H](Cc1c[nH]c2ccccc12)C(=O)O` [GsAF II] (H-YCQKWMWTCDEERKCCEGLVCRLWCKKKIEW-OH; disulfide 2-16, 9-21, 15-25), the half-inhibitory concentration (IC50) against human Nav1.7 came to 70 ± 10 nM; in the test with Nav1.2 (rBIIa), 410 ± 20 nM.
